Assay results reported in PubChem BioAssay AID328 (DTP/NCI, 2004).
Where “and” joins values, the source holds several entries; their conditions need not be identical. Identical values can stand only once. Inconclusive results and toxic doses are left out.

Test system: BDF1 mice, P388 leukemia ip, median survival T/C
Experiment: NCI In Vivo Anticancer Drug Screen. Data for tumor model P388 Leukemia (intraperitoneal) in B6D2F1 (BDF1) mice
Conditions: endpoint: median survival time, higher = longer survival
Procedure, shortened: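 Antitumour effect was judged in vivo: survival in drug-treated mice, normalised to that of vehicle-dosed controls, gives the reported T/C.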

[1] = dose: 25.0 mg/kg/injection, schedule: Q04DX003 (ip), vehicle: saline
[2] = dose: 50.0 mg/kg/injection, schedule: Q04DX003 (ip), vehicle: saline
[3] = dose: 100.0 mg/kg/injection, schedule: Q04DX003 (ip), vehicle: saline
[4] = dose: 50.0 mg/kg/injection, schedule: Q01DX009 (ip), vehicle: saline with Tween-80
[5] = dose: 50.0 mg/kg/injection, schedule: Q04DX003 (ip), vehicle: saline with Tween-80
[6] = dose: 100.0 mg/kg/injection, schedule: Q04DX003 (ip), vehicle: Klucel (hydroxypropylcellulose) (HPC)
[7] = dose: 200.0 mg/kg/injection, schedule: Q04DX003 (ip), vehicle: Klucel (hydroxypropylcellulose) (HPC)
[8] = dose: 100.0 mg/kg/injection, schedule: Q01DX009 (ip), vehicle: saline with Tween-80
[9] = dose: 100.0 mg/kg/injection, schedule: Q04DX003 (ip), vehicle: saline with Tween-80
[10] = dose: 100.0 mg/kg/injection, schedule: Q01DX009 (ip), vehicle: Klucel (hydroxypropylcellulose) (HPC)
[11] = dose: 100.0 mg/kg/injection, schedule: Q01DX009 (ip), vehicle: saline
[12] = dose: 200.0 mg/kg/injection, schedule: Q01DX009 (ip), vehicle: Klucel (hydroxypropylcellulose) (HPC)
[13] = dose: 400.0 mg/kg/injection, schedule: Q01DX009 (ip), vehicle: Klucel (hydroxypropylcellulose) (HPC)
[14] = dose: 400.0 mg/kg/injection, schedule: Q04DX003 (ip), vehicle: Klucel (hydroxypropylcellulose) (HPC)
[15] = dose: 200.0 mg/kg/injection, schedule: Q04DX003 (ip), vehicle: saline with Tween-80
[16] = dose: 400.0 mg/kg/injection, schedule: Q04DX003 (ip), vehicle: saline with Tween-80
[17] = dose: 200.0 mg/kg/injection, schedule: Q04DX003 (ip), vehicle: saline
[18] = dose: 400.0 mg/kg/injection, schedule: Q01DX009 (ip), vehicle: saline
[19] = dose: 400.0 mg/kg/injection, schedule: Q04DX003 (ip), vehicle: saline
[20] = dose: 200.0 mg/kg/injection, schedule: Q01DX009 (ip), vehicle: saline with Tween-80

With CC(CC(C)(C)C)C(=O)CCC(C)(C)C (centres undefined) the T/C (dose: 100.0 mg/kg/injection, schedule: Q01DX001 (ip), vehicle: saline with Tween-80) was 104 % of control, the T/C (dose: 200.0 mg/kg/injection, schedule: Q01DX001 (ip), vehicle: saline with Tween-80) was 100 % of control and the T/C (dose: 400.0 mg/kg/injection, schedule: Q01DX001 (ip), vehicle: saline with Tween-80) was 109 % of control.
For OCCCC1CCCCN1 (centres undefined), the T/C [1] was 115 % of control, the T/C [2] was 100 % of control and the T/C [3] was 105 % of control.
In the case of CCOC(=O)C(CCSC(C)=O)SC(C)=O (centres undefined), the T/C (dose: 6.25 mg/kg/injection, schedule: Q01DX009 (ip), vehicle: saline with Tween-80) is reported as 96 % of control, the T/C (dose: 12.5 mg/kg/injection, schedule: Q01DX009 (ip), vehicle: saline with Tween-80) is reported as 122 % of control and the T/C (dose: 12.5 mg/kg/injection, schedule: Q04DX003 (ip), vehicle: saline with Tween-80) is reported as 111 % of control. For the same molecule, the T/C (dose: 25.0 mg/kg/injection, schedule: Q01DX009 (ip), vehicle: saline with Tween-80) was 114 % of control, the T/C (dose: 25.0 mg/kg/injection, schedule: Q04DX003 (ip), vehicle: saline with Tween-80) was 115 % of control and the T/C [4] was 104 % of control. For the same molecule, the T/C [5] was 109 % of control and 111 % of control.
For OCC1CN(c2ccccc2)N=N1 (centres undefined), the T/C (dose: 50.0 mg/kg/injection, schedule: Q04DX002 (ip), vehicle: saline + alcohol) was 107 % of control, the T/C (dose: 100.0 mg/kg/injection, schedule: Q04DX002 (ip), vehicle: saline + alcohol) was 107 % of control and the T/C (dose: 200.0 mg/kg/injection, schedule: Q04DX002 (ip), vehicle: saline + alcohol) was 116 % of control.
With C1=CC2C3=CC1C=CC32 (centres undefined) the T/C (dose: 18.75 mg/kg/injection, schedule: Q04DX003 (ip), vehicle: Klucel (hydroxypropylcellulose) (HPC)) was 91 % of control, the T/C (dose: 37.5 mg/kg/injection, schedule: Q04DX003 (ip), vehicle: Klucel (hydroxypropylcellulose) (HPC)) was 95 % of control and the T/C (dose: 75.0 mg/kg/injection, schedule: Q04DX003 (ip), vehicle: Klucel (hydroxypropylcellulose) (HPC)) was 91 % of control.
With CCSc1ncnc2nc[nH]c12 the T/C [6] was 104 % of control and the T/C [7] was 109 % of control.
O=C(CBr)c1ccc(/C=C/c2ccc(Cl)cc2)cc1 was tested, and the T/C [4] was 95 % of control, the T/C [5] was 109 % of control and the T/C [8] was 120 % of control. The T/C [9] was 109 % of control.
In the case of Cc1cc(C)c(C(=O)C=O)c(C)c1, the T/C (dose: 25.0 mg/kg/injection, schedule: Q01DX009 (ip), vehicle: Klucel (hydroxypropylcellulose) (HPC)) is reported as 99 % of control, the T/C (dose: 50.0 mg/kg/injection, schedule: Q01DX009 (ip), vehicle: Klucel (hydroxypropylcellulose) (HPC)) is reported as 104 % of control and the T/C [10] is reported as 110 % of control.
With NC=NC(CCC(=O)O)C(=O)O (centres undefined) the T/C (dose: 12.5 mg/kg/injection, schedule: Q01DX005 (ip), vehicle: saline) was 90 % of control, the T/C (dose: 25.0 mg/kg/injection, schedule: Q01DX005 (ip), vehicle: saline) was 96 % of control and the T/C (dose: 50.0 mg/kg/injection, schedule: Q01DX005 (ip), vehicle: saline) was 91 % of control.
With O=C1NC(=O)C(F)(F)C(O)N1 (centres undefined) the T/C (dose: 12.0 mg/kg/injection, schedule: Q01DX009 (ip), vehicle: saline) was 115 % of control, the T/C (dose: 65.0 mg/kg/injection, schedule: Q01DX009 (ip), vehicle: saline) was 154 % of control and the T/C [11] was 154 % of control. The T/C (dose: 150.0 mg/kg/injection, schedule: Q01DX009 (ip), vehicle: saline) was 166 % of control, the T/C (dose: 220.0 mg/kg/injection, schedule: Q01DX009 (ip), vehicle: saline) was 179 % of control and the T/C (dose: 320.0 mg/kg/injection, schedule: Q01DX009 (ip), vehicle: saline) was 195 % of control.
For COc1ccc(C=O)c(O)c1, the T/C [10] was 90 % of control, the T/C [6] was 92 % of control and the T/C [12] was 104 % of control. The T/C [13] was 90 % of control and the T/C [14] was 96 % of control.
In the case of CC(C)c1nc(-c2ccccc2)c(-c2ccccc2)[nH]1, the T/C [9] is reported as 100 % of control, the T/C [15] is reported as 104 % of control and the T/C [16] is reported as 100 % of control.
Cc1nc2[nH]c(=O)ccc2c(C)c1N was tested, and the T/C (dose: 100.0 mg/kg/injection, schedule: Q04DX002 (ip), vehicle: saline with Tween-80) was 92 % of control.
For O=[N+]([O-])c1ccc2[nH]c3c(c2c1)CSCC3, the T/C [4] was 100 % of control, the T/C [10] was 100 % of control and the T/C [8] was 96 % of control. The T/C [9] was 109 % of control, the T/C [12] was 90 % of control and the T/C [15] was 107 % of control. The T/C [13] was 86 % of control, the T/C (dose: 400.0 mg/kg/injection, schedule: Q01DX009 (ip), vehicle: saline with Tween-80) was 91 % of control and the T/C [16] was 110 % of control.
In the case of C1CNC2NCCNC2N1 (centres undefined), the T/C (dose: 66.0 mg/kg/injection, schedule: Q04DX003 (ip), vehicle: saline) is reported as 104 % of control, the T/C [3] is reported as 100 % of control and the T/C (dose: 117.0 mg/kg/injection, schedule: Q04DX003 (ip), vehicle: saline) is reported as 109 % of control. For the same molecule, the T/C (dose: 132.0 mg/kg/injection, schedule: Q01DX009 (ip), vehicle: saline) was 156 % of control, the T/C (dose: 150.0 mg/kg/injection, schedule: Q04DX003 (ip), vehicle: saline) was 100 % of control and the T/C (dose: 178.0 mg/kg/injection, schedule: Q04DX003 (ip), vehicle: saline) was 154 % of control. For the same molecule, the T/C [17] was 120 % of control, the T/C (dose: 266.0 mg/kg/injection, schedule: Q04DX003 (ip), vehicle: saline) was 122 % of control and the T/C (dose: 300.0 mg/kg/injection, schedule: Q01DX009 (ip), vehicle: saline) was 150 % of control. For the same molecule, the T/C [18] was 150 % of control and the T/C [19] was 172 % of control.
For CC(C)(CCC(C)(C)NCCC#N)NCCC#N, the T/C (dose: 50.0 mg/kg/injection, schedule: Q01DX009 (ip), vehicle: saline) was 97 % of control and 104 % of control, the T/C [11] was 101 % of control and the T/C [3] was 98 % of control. The T/C (dose: 200.0 mg/kg/injection, schedule: Q01DX009 (ip), vehicle: saline) was 109 % of control and 119 % of control, the T/C [17] was 109 % of control and the T/C [18] was 107 % of control. The T/C [19] was 114 % of control.
CC/C(C)=N/Nc1nncn2c1cc1ccccc12 was tested, and the T/C [4] was 94 % of control, the T/C [8] was 100 % of control and the T/C [20] was 97 % of control.
For COc1ccc(C(=O)C/C(=N\N(C(=O)c2ccc(OC)cc2)c2ccccc2)c2ccc(OC)cc2)cc1, the T/C [4] was 104 % of control, the T/C [8] was 100 % of control and the T/C [20] was 100 % of control.
With O=[N+]([O-])c1cc(C(F)(F)F)ccc1/C=C/c1ccccc1Br the T/C (dose: 75.0 mg/kg/injection, schedule: Q04DX003 (ip), vehicle: saline with Tween-80) was 86 % of control, the T/C (dose: 150.0 mg/kg/injection, schedule: Q04DX003 (ip), vehicle: saline with Tween-80) was 90 % of control and the T/C (dose: 300.0 mg/kg/injection, schedule: Q04DX003 (ip), vehicle: saline with Tween-80) was 100 % of control.
Sc1ccc(Nc2c3ccccc3nc3ccccc23)cc1 was tested, and the T/C [4] was 102 % of control and 108 % of control and the T/C [8] was 100 % of control and 118 % of control.
For C[N+](C)(CC(=O)Nc1ccc(Cl)cc1)CC(=O)c1ccc(Cl)c(Cl)c1, the T/C (dose: 100.0 mg/kg/injection, schedule: Q01DX001 (ip), vehicle: saline sonified) was 104 % of control, the T/C (dose: 200.0 mg/kg/injection, schedule: Q01DX001 (ip), vehicle: saline sonified) was 95 % of control and the T/C (dose: 400.0 mg/kg/injection, schedule: Q01DX001 (ip), vehicle: saline sonified) was 100 % of control.
In the case of C=CCCc1cc(OC)ccc1C(=O)C(C)C, the T/C [4] is reported as 112 % of control and the T/C [20] is reported as 119 % of control.
With CCCCCCCCCCCCCC[S+](C)C the T/C (dose: 12.5 mg/kg/injection, schedule: Q01DX009 (ip), vehicle: saline) was 118 % of control, the T/C (dose: 25.0 mg/kg/injection, schedule: Q01DX009 (ip), vehicle: saline) was 100 % of control and the T/C [1] was 100 % of control. For the same molecule, the T/C [2] was 104 % of control.
O=C(c1ccccc1)c1c2ccccc2c(-c2ccccc2)c2ccccc12 was tested, and the T/C [10] was 100 % of control, the T/C [6] was 91 % of control and the T/C [12] was 100 % of control. The T/C [7] was 87 % of control, the T/C [13] was 111 % of control and the T/C [14] was 95 % of control.
